These results are taken from PMC11262537, “Cell-Penetrating Chaperone Nuc1 for Small- and Large-Molecule Delivery Into Retinal Cells and Tissues” (Investigative Ophthalmology & Visual Science, 2024).

Entries after “also recorded” stand apart in the source; their conditions may differ. Residues, ends and D or L forms follow the SMILES beside them. No end group written: not given here. *: point of attachment. 6FAM = O=C1OC2(c3ccc(O)cc3Oc3cc(O)ccc32)c2cc(C(=O)*)ccc21

In data set [1] the test system is retinal tissues and cells. Description: Retinal penetration of FAM-labeled peptide after intravitreal injection, fluorescence microscopy of cryosections. The class given is in vivo, C57BL/6J mice. To be noted: for localization in retinal layers: 1 µg in 1 µL H2O intravitreal, 4 hours postinjection, fluorescence microscopy of cryosections, n = 4 to 5 animals per group. Here is the method:
Retinal cryosections (14 µm) were rehydrated in phosphate-buffered saline (PBS) for 15 minutes, permeabilized, and blocked with 6% normal goat serum in PBS containing 0.1% Triton-X-100 (or using mouse-on-mouse kit as appropriate) for 45 minutes and incubated overnight in a saturated chamber with the primary antibodies against anti-glutamine synthetase (Müller cells), anti–β-III-tubulin (ganglion cells), anti-rhodopsin (rod cells), anti–S-opsin (cone cells), and anti-PKCα (bipolar cells). Subsequently, sections were washed and incubated with respective secondary antibodies labeled with Alexa Fluor 594 or 488 (Molecular Probes, Eugene, OR, USA) or Cy3 (Jackson Immunoresearch, Westgrove, PA, USA). Slides were mounted in antifade medium containing DAPI (Vectashield-DAPI; Vector Laboratories, Burlingame, CA, USA) to counterstain nuclei, and images were captured with a Leica TCS SPE microscope (Leica Microsystems, Wetzlar, Germany).
(§1) In order to determine whether Nuc1 peptide was toxic to the murine retina, we injected various amounts (0.5–4.0 µg) 5′ 6-FAM–labeled Nuc1 into the vitreous of 6-week-old C57BL/6J mice and processed the retinas as described below. We determined that 1 µg Nuc1 was not toxic to the retina, whereas 4.0 µg Nuc1 generated some toxicity (data not shown). Based on these observations, we selected 1 µg as an optimal working dose. We then injected 1 µg 5′ 6-FAM–labeled Nuc1 suspended in 1 µL H2O or 1 µg 5′ 6-FAM-SC (a scrambled peptide) into the vitreous of 6-week-old C57BL/6J mice. Four hours postinjection, eyes were enucleated, fixed, and cryosectioned and the retina was imaged by fluorescence microscopy. […] We conclude that Nuc1 peptide penetrates the retina and labels a variety of retinal cells following intravitreal injection.

For data set [2], the system named is murine retinal tissue explants. Put plainly: Retinal explant culture uptake with or without imipramine (macropinocytosis). The class given is cell-based, C57BL6/J mice. To be noted: 37°C, confocal imaging, n = 3–4 explants per group; for uptake into retinal explants in presence of imipramine: 1 µg/mL in DMEM/F12 + 5 µM imipramine, 4 hours; for uptake into retinal explants: 1 µg/mL in DMEM/F12, 4 hours, 5% CO2, absence of imipramine. Here is the method:
After careful removal, the eyeballs from C57BL6/J mice were transferred to a Petri dish containing fresh cold Dulbecco's modified Eagle's medium (DMEM). Under a dissecting microscope, the cornea, ocular muscles, and lens were removed and flat mounts prepared via making four incisions from the margin of the eye cup toward the optic nerve. Flat mounts were transferred into six-well plates containing fresh DMEM/F12 mixed with 5′ 6-FAM-Nuc1 or 5′ 6-FAM-SC (1 µg/mL) in presence or absence of 5 µM imipramine (Sigma). After 4 hours of culturing in a cell culture incubator (37°C, 5% CO2), retinas were washed twice with PBS and fixed with 4% PFA for 15 minutes. Thereafter, the tissue sections were soaked in 15% to 30% sucrose at 4°C overnight. Retinal explants were frozen into Tissue-Tek cryomolds (Torrence, CA, USA) and the 14-µm sections were imaged under a Leica (Teaneck, NJ, USA) TCS-SPE confocal microscope.
Macropinocytosis is a specialized pathway of endocytosis characterized by the nonspecific internalization of extracellular fluids, solutes, and membrane in large endocytic vesicles known as macropinosomes. Macropinocytosis plays a role in a variety of physiological processes, including nutrient sensing, recycling of plasma proteins, and signaling.[42]^,[43] Molecules that bind HSPGs can stimulate bulk cellular uptake via macropinocytosis.[19] […] In order to test the hypothesis that Nuc1 can be taken up by cells via macropinocytosis, murine retinal tissue explants were incubated in 5′ 6-FAM-Nuc1 (1 µg/mL) in the presence or absence of 5 µM imipramine. After 4 hours, explants were processed for cryosectioning as above. We found robust uptake of 5′ 6-FAM-Nuc1 within 4 hours of incubation (Fig. 7). […] We conclude that Nuc1 peptide penetrates retinal cells in part by the process of macropinocytosis.

The subject of data set [3] is murine retina. Description: Retinal toxicity of Nuc1 after intravitreal injection. The class given is in vivo, C57BL/6J mice. Particulars: for toxicity to the retina: 6-week-old C57BL/6J mice, data not shown. On the procedure:
as §1
Furthermore, while sequences used in the design of Nuc1 were selected based on prior studies of nucleolin and heparan-sulfate proteoglycan-binding sequences, detailed analysis of mechanism(s) of uptake is ongoing in our laboratory. Such studies face the challenge of limitations associated with retinal cell culture with a bona fide extracellular matrix.

Consider `CC[C@H](C)[C@H](NC(=O)[C@H](CO)NC(=O)[C@H](C)NC(=O)c1ccc2c(c1)C1(OC2=O)c2ccc(O)cc2Oc2cc(O)ccc21)C(=O)N[C@@H](CCCCN)C(=O)N[C@H](C(=O)N[C@@H](C)C(=O)N[C@H](C(=O)N[C@@H](CO)C(=O)N[C@@H](C)C(=O)NCC(=O)NCC(=O)N[C@@H](CC(=O)O)C(=O)N[C@@H](CCCCN)C(=O)N1CCC[C@H]1C(=O)N[C@@H](CCCNC(=N)N)C(=O)N[C@@H](CCCNC(=N)N)C(=O)O)C(C)C)C(C)C` [5′ 6-FAM-Nuc1] (6FAM-ASIKVAVSAGGDKPRR-OH), for which the “localization in retinal layers” value in data set [1] is listed as “abundantly localized to all layers of the retina; also recorded: localizes to all layers of the retina”. Moreover, the “retinal cell types targeted” value in data set [1] (1 µg intravitreal, 4 hours, costaining for tubulin, PKC, rod opsin, glutamine synthase) is “ganglion cells, bipolar cells, photoreceptors, and Müller cells”. Also, in data set [2], the “uptake into retinal explants in presence of imipramine” value is reported as “significantly reduced uptake” and the “uptake into retinal explants” value is reported as “robust uptake”.

As for `CC[C@H](C)[C@H](NC(=O)[C@H](CO)NC(=O)[C@H](C)NC(=O)[C@H](CCCNC(=N)N)NC(=O)c1ccc2c(c1)C1(OC2=O)c2ccc(O)cc2Oc2cc(O)ccc21)C(=O)N[C@@H](C)C(=O)N[C@@H](CCCCN)C(=O)N[C@@H](C)C(=O)N[C@@H](CCCNC(=N)N)C(=O)N[C@@H](CC(=O)O)C(=O)N[C@H](C(=O)N[C@@H](CCCCN)C(=O)NCC(=O)N[C@H](C(=O)N1CCC[C@H]1C(=O)NCC(=O)N[C@@H](CO)C(=O)O)C(C)C)C(C)C` [5′ 6-FAM-SC, reference compound] (6FAM-RASIAKARDVKGVPGS-OH), the “localization in retinal layers” value in data set [1] was “accumulated primarily at the inner limiting membrane and was very weakly visible in the retina; also recorded: does not significantly penetrate the retina”. In data set [2], the “uptake into retinal explants in presence of imipramine” value was “marginal reduction in uptake” and the “uptake into retinal explants” value is listed as “did not show any significant uptake”.

ASIKVAVSAGGDKPRR [Nuc1]: the “toxicity to the retina” value in data set [3] (1 µg 5′ 6-FAM-labeled Nuc1 intravitreal) is given as “not toxic”; in data set [3] (4.0 µg 5′ 6-FAM-labeled Nuc1 intravitreal), “some toxicity”. Besides, the “obvious toxicity associated with Nuc1” value in data set [3] (short-term (4 hours) or longer-term (2 weeks) proof-of-concept studies) is reported as “did not observe any obvious toxicity”.
